Assays:
[1] = target: Methyl-CpG-binding domain protein 4 (Homo sapiens) (UniProt O95243); settings: Hit No;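 also: MBD4 activity read as fluorescence at 594 nm from cleavage and release of a quenched duplex DNA oligonucleotide, with APE1 coupled to incise the strand and raise turnover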
Description: Inhibition of MBD4 by quantifying inhibition of MBD4-mediated cleavage and dissociation of quenched duplex DNA oligonucleotides, measured as fluorescence at 594 nm. To generate a functional strand incision and increase turn-over this assay is coupled to APE1.

[2] = target: Endonuclease 8-like 1 (Homo sapiens) (UniProt Q96FI4); settings: Hit No;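 also: fluorescence at 594 nm from quenched duplex DNA oligonucleotides released by NEIL1 cleavage and strand separation, reported as reduction of this enzyme activity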
Sequence of Endonuclease 8-like 1 (Homo sapiens) (Q96FI4 whole entry): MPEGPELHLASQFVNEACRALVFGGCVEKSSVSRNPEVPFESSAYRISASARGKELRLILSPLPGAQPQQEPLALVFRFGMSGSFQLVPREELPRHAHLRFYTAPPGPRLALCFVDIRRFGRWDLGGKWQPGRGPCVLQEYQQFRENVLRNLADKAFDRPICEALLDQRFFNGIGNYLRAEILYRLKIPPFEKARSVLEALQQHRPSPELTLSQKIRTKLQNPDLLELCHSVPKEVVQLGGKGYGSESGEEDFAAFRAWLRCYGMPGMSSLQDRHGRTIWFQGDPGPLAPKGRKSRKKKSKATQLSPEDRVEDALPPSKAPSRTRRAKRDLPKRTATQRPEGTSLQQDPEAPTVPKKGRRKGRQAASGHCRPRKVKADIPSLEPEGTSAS
Description: Inhibition of NEIL1 by quantifying inhibition of NEIL1-mediated cleavage and dissociation of quenched duplex DNA oligonucleotides, measured as fluorescence at 594 nm.

[3] = target: T1, Endonuclease 8-like 2 (Homo sapiens) (UniProt Q969S2); settings: Hit No;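 also: fluorescence at 594 nm reports NEIL2 cutting and release of a quenched double-stranded DNA oligo substrate, reduced signal read as inhibition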
T1 sequence (whole entry): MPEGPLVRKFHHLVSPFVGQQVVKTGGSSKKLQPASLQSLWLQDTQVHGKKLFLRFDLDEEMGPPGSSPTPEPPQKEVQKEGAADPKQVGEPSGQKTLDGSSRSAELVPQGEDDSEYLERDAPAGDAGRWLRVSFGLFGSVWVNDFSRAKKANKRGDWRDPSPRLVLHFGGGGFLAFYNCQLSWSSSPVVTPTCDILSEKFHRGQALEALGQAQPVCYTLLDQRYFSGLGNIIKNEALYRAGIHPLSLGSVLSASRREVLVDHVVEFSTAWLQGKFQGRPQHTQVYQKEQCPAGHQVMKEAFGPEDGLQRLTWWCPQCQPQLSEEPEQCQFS
Description: Inhibition of NEIL2 by quantifying inhibition of NEIL2-mediated cleavage and dissociation of quenched duplex DNA oligonucleotides, measured as fluorescence at 594 nm.

[4] = target: N-glycosylase/DNA lyase (Homo sapiens) (UniProt O15527); settings: Hit No;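 also: OGG1 cleavage of a quenched duplex DNA oligonucleotide, coupled to APE1 for strand incision, read as fluorescence at 594 nm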
Sequence of N-glycosylase/DNA lyase (Homo sapiens) (O15527 whole entry): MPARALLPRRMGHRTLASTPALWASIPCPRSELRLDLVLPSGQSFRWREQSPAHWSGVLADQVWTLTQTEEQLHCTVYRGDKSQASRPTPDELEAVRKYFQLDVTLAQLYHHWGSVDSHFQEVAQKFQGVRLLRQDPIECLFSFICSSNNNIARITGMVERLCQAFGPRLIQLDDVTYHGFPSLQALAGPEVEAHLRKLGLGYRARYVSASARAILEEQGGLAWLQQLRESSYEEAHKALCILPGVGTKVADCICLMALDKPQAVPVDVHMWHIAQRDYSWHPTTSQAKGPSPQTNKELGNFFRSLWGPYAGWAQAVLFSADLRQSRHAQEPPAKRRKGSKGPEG
Description: Inhibition of OGG1 by quantifying inhibition of OGG1-mediated cleavage and dissociation of quenched duplex DNA oligonucleotides, measured as fluorescence at 594 nm. To generate a functional strand incision and increase turn-over this assay is coupled to APE1.

[5] = target: T2, Single-strand selective monofunctional uracil DNA glycosylase (Homo sapiens) (UniProt Q53HV7); settings: Hit No;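 also: enzymatic SMUG1 assay coupled with APE1, reading fluorescence at 594 nm released when a quenched double-stranded DNA oligonucleotide substrate is cleaved and separated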
T2 sequence (whole entry): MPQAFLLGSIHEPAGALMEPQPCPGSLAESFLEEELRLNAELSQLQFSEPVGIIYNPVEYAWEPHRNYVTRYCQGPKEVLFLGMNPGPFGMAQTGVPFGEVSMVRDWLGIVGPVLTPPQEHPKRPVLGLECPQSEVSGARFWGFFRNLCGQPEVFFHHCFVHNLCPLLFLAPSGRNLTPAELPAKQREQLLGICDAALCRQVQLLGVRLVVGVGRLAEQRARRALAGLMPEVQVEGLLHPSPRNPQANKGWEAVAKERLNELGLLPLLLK
Description: Inhibition of SMUG1 by quantifying inhibition of SMUG1-mediated cleavage and dissociation of quenched duplex DNA oligonucleotides, measured as fluorescence at 594 nm. To generate a functional strand incision and increase turn-over this assay is coupled to APE1.

[6] = target: G/T mismatch-specific thymine DNA glycosylase (Homo sapiens) (UniProt Q13569); settings: Hit No;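 also: human TDG cleavage of quenched duplex DNA oligonucleotides coupled to APE1, strand release read as fluorescence at 594 nm, inhibition of TDG activity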
Sequence of G/T mismatch-specific thymine DNA glycosylase (Homo sapiens) (Q13569 whole entry): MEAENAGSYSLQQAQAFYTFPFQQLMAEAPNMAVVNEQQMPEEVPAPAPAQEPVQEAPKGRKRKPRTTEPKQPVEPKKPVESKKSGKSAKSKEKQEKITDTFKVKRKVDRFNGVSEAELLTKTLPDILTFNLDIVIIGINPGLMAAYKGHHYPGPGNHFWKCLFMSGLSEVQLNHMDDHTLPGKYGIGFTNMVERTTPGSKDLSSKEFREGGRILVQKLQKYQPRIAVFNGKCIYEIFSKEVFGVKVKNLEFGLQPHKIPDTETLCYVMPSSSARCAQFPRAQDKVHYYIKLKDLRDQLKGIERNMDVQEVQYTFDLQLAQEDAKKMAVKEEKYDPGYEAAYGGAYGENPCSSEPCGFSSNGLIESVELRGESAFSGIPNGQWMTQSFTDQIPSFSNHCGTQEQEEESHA
Description: Inhibition of TDG by quantifying inhibition of TDG-mediated cleavage and dissociation of quenched duplex DNA oligonucleotides, measured as fluorescence at 594 nm. To generate a functional strand incision and increase turn-over this assay is coupled to APE1.

[7] = target: Uracil-DNA glycosylase (Homo sapiens) (UniProt P13051); settings: Hit No;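 also: UNG excision on a quenched double-stranded DNA oligo probe, with APE1 added for strand incision and turnover, read as fluorescence at 594 nm as strands separate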
Sequence of Uracil-DNA glycosylase (Homo sapiens) (P13051 whole entry): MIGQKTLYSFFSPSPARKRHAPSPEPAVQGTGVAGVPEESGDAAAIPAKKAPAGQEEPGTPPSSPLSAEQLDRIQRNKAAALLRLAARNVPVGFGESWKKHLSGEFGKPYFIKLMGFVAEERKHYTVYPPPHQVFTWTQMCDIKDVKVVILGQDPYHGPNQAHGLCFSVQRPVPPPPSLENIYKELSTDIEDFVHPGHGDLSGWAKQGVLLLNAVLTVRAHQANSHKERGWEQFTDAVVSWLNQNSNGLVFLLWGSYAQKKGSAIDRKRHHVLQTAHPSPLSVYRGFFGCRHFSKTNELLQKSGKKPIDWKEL
Description: Inhibition of UNG by quantifying inhibition of UNG-mediated cleavage and dissociation of quenched duplex DNA oligonucleotides, measured as fluorescence at 594 nm. To generate a functional strand incision and increase turn-over this assay is coupled to APE1.

[8] = target: T3, Endonuclease III-like protein 1 (Homo sapiens) (UniProt P78549); settings: Compound Concentration 10.0 uM, Hit No;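 also: enzyme assay tracking NTHL1 cutting and release of a quenched double-stranded DNA oligo substrate, read as fluorescence at 594 nm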
T3 sequence (whole entry): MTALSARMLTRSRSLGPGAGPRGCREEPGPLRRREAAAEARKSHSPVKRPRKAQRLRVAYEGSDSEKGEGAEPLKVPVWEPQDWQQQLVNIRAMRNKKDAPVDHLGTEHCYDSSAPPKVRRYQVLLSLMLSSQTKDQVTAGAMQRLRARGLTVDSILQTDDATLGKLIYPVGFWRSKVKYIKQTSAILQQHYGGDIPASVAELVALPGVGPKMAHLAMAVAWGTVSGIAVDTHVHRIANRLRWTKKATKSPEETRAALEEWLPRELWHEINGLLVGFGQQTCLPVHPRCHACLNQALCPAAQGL
Description: Inhibition of NTHL1 by quantifying inhibition of NTHL1-mediated cleavage and dissociation of quenched duplex DNA oligonucleotides, measured as fluorescence at 594 nm.

Sequence of Methyl-CpG-binding domain protein 4 (Homo sapiens) (O95243 whole entry, the tested form may be a part): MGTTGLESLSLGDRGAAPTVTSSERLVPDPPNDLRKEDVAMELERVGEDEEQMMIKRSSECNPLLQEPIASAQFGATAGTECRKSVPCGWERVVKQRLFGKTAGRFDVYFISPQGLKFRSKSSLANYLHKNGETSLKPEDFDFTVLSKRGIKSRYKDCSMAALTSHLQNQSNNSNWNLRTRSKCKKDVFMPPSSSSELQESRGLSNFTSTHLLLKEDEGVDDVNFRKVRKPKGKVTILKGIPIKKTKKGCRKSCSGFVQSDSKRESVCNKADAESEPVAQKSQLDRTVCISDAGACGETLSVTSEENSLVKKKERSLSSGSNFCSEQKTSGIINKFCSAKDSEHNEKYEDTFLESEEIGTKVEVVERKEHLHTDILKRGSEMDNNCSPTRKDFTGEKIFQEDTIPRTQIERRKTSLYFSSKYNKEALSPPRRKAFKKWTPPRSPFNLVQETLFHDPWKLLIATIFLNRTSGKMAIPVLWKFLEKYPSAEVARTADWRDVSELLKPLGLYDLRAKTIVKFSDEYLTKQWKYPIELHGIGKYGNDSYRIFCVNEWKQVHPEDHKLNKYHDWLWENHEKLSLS

Row | Compound | inhibition ([1]; Compound Concentration 1.0 uM) [%] | inhibition ([2]; Compound Concentration 1.0 uM) [%] | inhibition ([3]; Compound Concentration 1.0 uM) [%] | inhibition ([4]; Compound Concentration 1.0 uM) [%] | inhibition ([5]; Compound Concentration 1.0 uM) [%] | inhibition ([6]; Compound Concentration 1.0 uM) [%] | inhibition ([7]; Compound Concentration 1.0 uM) [%] | inhibition ([1]; Compound Concentration 10.0 uM) [%] | inhibition ([3]; Compound Concentration 10.0 uM) [%] | inhibition ([4]; Compound Concentration 10.0 uM) [%] | inhibition ([5]; Compound Concentration 10.0 uM) [%] | inhibition ([6]; Compound Concentration 10.0 uM) [%] | inhibition ([7]; Compound Concentration 10.0 uM) [%] | inhibition ([2]; Compound Concentration 10.0 uM) [%] | inhibition [8] [%]
1 | CN1C(=O)c2sccc2N(C)c2nc(Nc3ccc(S(N)(=O)=O)cc3)ncc21 | 27.4 | -7.66 | -6.76 | 5.53 | 9.9 | 40.8 | -4.58 | – | – | – | – | – | – | – | –
2 | CCNC(=O)c1cc2c(N3CCOCC3C)ccnc2[nH]1 (stereo not drawn) | – | – | – | – | – | – | – | 52.5 | -7.12 | -6.36 | 15.1 | 58.1 | -3.94 | – | –
3 | Oc1c(CN2CCN(c3ccccn3)CC2)cc(Cl)c2cccnc12 | – | – | – | – | – | – | – | – | 7.5 | – | – | – | – | -9.54 | 39.3
4 | CC(C=CC1=C(C)CCCC1(C)C)=CC=CC(C)=CC(=O)O | – | – | – | – | – | – | – | 57.7 | -4.83 | 83.6 | 8.2 | 96.3 | -0.014 | – | –
5 | COc1ccc2cc(OCC3(C(=O)O)CN(C(=O)c4ccc(F)cc4)C3)ccc2c1 | 76.6 | 0.467 | -2.53 | -4.88 | 4.5 | 50.2 | -0.296 | – | – | – | – | – | – | – | –
6 | CS(=O)(=O)NCC[C@H](NC(=O)c1cncc2c1cnn2-c1ccc(F)cc1)c1ccnc(S(C)(=O)=O)c1 | 64.7 | -4.23 | 0.0213 | -0.705 | 6.65 | 50.4 | -0.0979 | – | – | – | – | – | – | – | –
7 | CC(=O)C1=C(C)N(c2cccc(C(F)(F)F)c2)C(=O)N[C@@H]1c1ccc(C#N)nc1 | – | – | – | – | – | – | – | 51.4 | 3.85 | -1.15 | -3.19 | 45.6 | 2.25 | – | –
8 | O=C(Nc1cnc(Oc2ccc(F)cc2)nc1)N1CCc2ncccc2[C@@H]1c1ccc(F)cc1 | – | – | – | – | – | – | – | 70.5 | -3.04 | -7.44 | 6.94 | 49.8 | -4.47 | – | –
9 | O=C(Nc1ccc(Oc2ccc(F)cc2)cc1)N1CCc2ncccc2[C@H]1c1ccc(F)cc1 | 71 | -9.68 | -5.34 | -3.07 | 3.93 | 48.4 | -3.31 | – | – | – | – | – | – | – | –
10 | COc1cccc(CNC(=O)c2nc3scc(COCc4ccc(C(=O)O)cc4)c3c(=O)[nH]2)c1 | 56 | -1.5 | -2.53 | 12.5 | 18.6 | 99.5 | -0.0979 | – | – | – | – | – | – | – | –
11 | CCC[C@H]1CNCc2c1[nH]c(=O)c(C#N)c2N1CCC2(CC1)CC2 | – | – | – | – | – | – | – | 58.5 | -0.999 | 2.34 | 6.33 | 100 | 0.94 | 9.71 | –
12 | Cc1ccc2[nH]c(CNCCCc3ccncc3)cc(=O)c2c1 | – | – | – | – | – | – | – | 56.8 | -5.59 | 5.93 | 7.47 | 35.6 | -0.701 | -2.56 | –
13 | O=C(NCCN1CCOCC1)c1ccc2c(c1)C(=O)c1ccc(Nc3ccc(F)c(NC(=O)c4ccccc4)c3)cc1CC2 | – | – | – | – | – | – | – | – | -4.66 | – | – | – | – | -5.6 | 0.366
14 | CCCCCCOc1cc2n(c(=O)n1)CCc1cc(OC)c(OC)cc1-2 | – | – | – | – | – | – | – | – | -5.45 | – | – | – | – | 1.64 | -4.39
15 | C[C@@H](c1cccc(C#N)c1)n1cc(Cl)cc(C(N)=O)c1=N | – | – | – | – | – | – | – | 67 | 12 | 1.26 | 9.26 | 46.5 | 3.37 | -4.99 | –
16 | O=C(NCCN1CCC(n2c(=O)[nH]c3cc(Cl)ccc32)CC1)c1ccc(F)cc1 | – | – | – | – | – | – | – | – | 1.51 | – | – | -0.00915 | – | 5.43 | -1.74
17 | Cc1c(Cc2ccc3ccccc3n2)c2cc(F)ccc2n1CC(=O)O | – | – | – | – | – | – | – | – | 30.2 | – | – | – | – | 9.88 | -6.14
18 | CN1CCN(c2ccc(/C=C(\C#N)c3ccccc3Br)cc2)CC1 | – | – | – | – | – | – | – | 55.3 | -0.489 | 25.6 | 7.83 | 42.1 | 4.48 | -2.11 | –
19 | Clc1ccc(-c2nc3sccn3c2/C=N/OCc2ccc(Cl)c(Cl)c2)cc1 | – | – | – | – | – | – | – | 15.6 | 2.57 | 1.07 | 12 | 76.8 | -2.04 | 1.22 | –
20 | O=c1[nH]c(=O)c2nc3ccccc3nc2[nH]1 | – | – | – | – | – | – | – | – | 5.26 | – | – | – | – | 4.1 | 14.4
21 | Cn1ncc2c(-c3c(-c4ccc(F)cn4)nn4c3COC(C)(C)C4)ccnc21 | – | – | – | – | – | – | – | 50.1 | -5.34 | -1.93 | 3.56 | 99.5 | 1.59 | – | –
22 | CCC(F)(F)c1cc(N2CCC(S(C)(=O)=O)CC2)nc2sc(C(N)=O)c(N)c12 | – | – | – | – | – | – | – | 38.2 | -1.2 | -8.21 | 8.86 | 39.1 | 3.95 | -3.46 | –
23 | C[C@@H]1CCNC(=O)c2cc3ccc(C(=O)Nc4nc5ccccc5n4CCCN(C)C)cc3n21 | -2.92 | 3.44 | -5.96 | 5.43 | 22.7 | 37.8 | 1.38 | – | – | – | – | – | – | – | –
24 | Cc1noc([C@H]2C[C@@H](c3ccc(C(F)(F)F)cc3)CN(C(=O)N3CCS(=O)(=O)C3)C2)n1 | – | – | – | – | – | – | – | 42.2 | -5.59 | 1.56 | 5.39 | 53.6 | -0.51 | – | –
25 | Cc1c(Oc2ccc(F)cc2)c(OC(C)C)nn1-c1ccc(C2CC2)cn1 | 59 | -5.44 | 1.55 | 10.1 | 8.77 | 52 | 0.0471 | – | – | – | – | – | – | – | –
26 | CC[C@H](CC(=O)O)n1c(=O)c2ncccc2n(Cc2cn(C)c3cc(C)cc(C)c23)c1=O | – | – | – | – | – | – | – | 56.1 | -5.34 | 0.279 | -8.88 | 46.4 | 0.131 | 0.164 | –

From ChEMBL document CHEMBL5665443, “Enzyme Inhibitor Single Concentration assay results for EUbOPEN Chemogenomics Library” (2024)
